Four compounds from US11718610B2, “Compounds containing benzosultam” (MEDSHINE DISCOVERY INC., priority 2020, dated 2023) can be followed below.

The subject of assay [1] is human lung cancer Calu-6 cell subcutaneous xenograft tumor. Nature of the assay: In vivo pharmacodynamic experiment, BALB/c nude mouse model of subcutaneous xenograft tumors of human lung cancer Calu-6 cells. To be noted: 50 mg/kg oral (PO) once a day (QD), Calu-6 xenograft in BALB/c nude mice, vs solvent control; P<0.01. As for the experimental part: Experimental Embodiment 7: In Vivo Pharmacodynamic Experiment of the BALB/c Nude Mouse Model of Subcutaneous Xenograft Tumors of Human Lung Cancer Calu-6 Cells
Age of arrival: 6 to 8 weeks old
Cells: Calu-6 cells of human lung cancer were cultured in vitro, and 0.2 Units/mL bovine insulin, 10% fetal bovine serum were added to EMEM culture medium in a 37° C. and 5% CO2 incubator for culture. Conventional digestion with trypsin-EDTA was performed twice a week for passage. When the cell saturation was 80%-90% and the number of the cells reached the requirement, and the cells were collected, counted, and seeded.
Cell inoculation: 0.2 mL of Calu-6 cell (mixed in a ratio of 1:1 with matrix gel) was subcutaneously inoculated on the right back of each mouse, and group administration was started when the average tumor volume reached […],
Tumor diameters were measured with vernier calipers twice a week. The calculation formula of tumor volume was: V=0.5a×b^2, and a and b represent the long and short diameters of the tumor, respectively.
The tumor inhibition efficacy of the compounds was evaluated by TGI (%) or relative tumor proliferation rate T/C (%). Relative tumor proliferation rate T/C (%)=TRTV/CRTV×100% (TRTV: RTV in the treatment group; CRTV: RTV in the negative control group). The relative tumor volume (RTV) was calculated according to the results of tumor measurement, and the formula was RTV=Vt/V0, wherein V0 was the tumor volume measured at the time of group administration (i.e., D0), and Vt was the tumor volume measured at a certain measurement, and TRTV and CRTV were taken on the same day.
TGI (%), reflecting the tumor growth inhibition rate. TGI (%)=[1−(average tumor volume at the end of administration in a treatment group−average tumor volume at the beginning of administration in this treatment group)/(average tumor volume at the end of treatment in a solvent control group−average tumor volume at the beginning of treatment in this solvent control group)]×100%.
Statistical analysis was based on the data of RTV at the end of the experiment, and SPSS software was used for analysis. One-way ANOVA was used for comparison between two groups, and the variance was uneven (there was significant difference in F value), and Games-Howell method was used to test, p<0.05 was considered a significant difference.
(In general: In xenograft studies the graft and the host belong to different species.)

A further assay concerns Calu-6 cells. Nature of the assay: Calu-6 (Kras Q61K) antiproliferative activity experiment (CellTiterGlo). To be noted: cultured three days. The class given is cell-based, human. As for the experimental part:
Experimental Embodiment 1: Calu-6 (Kras^Q61K) Antiproliferative Activity Experiment
(1) cell culture medium: 88% RPMI-1640, 10% fetal bovine serum, 1% L-glutamine and 1% penicillin-streptomycin;
(2) culture medium, trypsin and DPBS were preheated in a 37° C. water bath;
(3) the original culture medium was removed in the cell culture flask and washed once with 6 mL of PBS;
(4) 3.5 mL of trypsin was added to the cell culture flask, and the cell culture flask was shaken gently, and the trypsin was removed after full contact with the cell, and then the culture flask was placed into a 37° C. incubator containing 5% CO2 for about 1 minute;
(5) the cells were resuspended with 10 mL of cell culture medium, and about 0.6 mL of cell suspension (ViCell XR) was taken out for counting;
(§1) (6) the cell suspension was diluted with culture medium to a cell density required for plating of 2.5×10^4 cells per mL;
(7) 100 μL of PBS was added to each well around the cell plate, and 40 μL of cell suspension was added to the other wells, and placed in a 37° C. incubator containing 5% CO2 for overnight culture.
(§2) (8) The required cell amount and culture medium were taken based on the new T75 culture flask for continued culture.
(§3) (1) the compound to be tested was prepared into […] solution with DMSO;
(2) 9 μL of the compound was taken and added to Echo shallow well plate (Labcyte, #LP-0200), and the shallow well plate was centrifuged at 1000 rpm for 10 seconds;
(3) DPBS at the periphery of the cell plate was sucked out;
(4) the compound was gradient diluted and administrated with Echo, and 10 concentration gradients of each compound were diluted, and 100 nL of the diluent was added to the 384 cell plate separately, and then the cell plate was put back to the incubator and cultured for three days;
(5) then 100 μL of DPBS was added to the periphery of the cell plate.
(1) CTG was added and the plate was read: 20 μL of CellTiterGlo was added to each well of the cell plate, and the cell plate was shaken in the dark for 10 min. and the plate was read on Envision.
(In general: ATP-based viability assays read luminescence as a measure of living cells.)

In another assay the test system is HCT116 cells. Nature of the assay: HCT116 (Kras G13D) antiproliferative activity experiment (CellTiter Glo). The format is cell-based. Particulars: Homo sapiens, HCT-116, 72 h, cultured 3 days. As for the experimental part:
Experimental Embodiment 2: HCT116 (Kras^G13D) Antiproliferative Activity Experiment
(1) cell culture medium: 89% Mc′Coy 5A, 10% fetal bovine serum and 1% penicillin-streptomycin;
(2) culture medium and trypsin were preheated in a 37° C. water bath;
(3) the culture medium was removed in the cell culture flask and washed once with 1 mL of trypsin;
(4) 1 mL of trypsin was added to the cell culture flask, and the cell culture flask was shaken gently, and the trypsin was removed after full contact with the cell, and then the culture flask was placed into a 37° C. incubator containing 5% CO2 for about 1 minute;
(5) the cells were resuspended with 2 mL of cell culture medium, and about 0.01 mL of cell suspension was taken out for counting;
as §1
(7) 100 μL of culture medium was added to each well around the cell plate, and 80 μL of cell suspension was added to the other wells, and placed in a 37° C. incubator containing 5% CO2 for overnight culture.
as §2, §3
(2) 9 concentration gradients and 3-fold dilutions were performed on the compounds, that is, a double-duplicate experiment was set from 6 mmol to 2.7 μmol, and 78 μL of culture medium was added to the middle plate, and then 2 μL of gradient diluted compound per well was transferred to the middle plate according to the corresponding position, and after mixing, 20 μL per well was transferred to the cell plate, and the final concentration of the compound transferred to the cell plate was 30 μmol to 13.7 nmol. The cell plate was placed in a carbon dioxide incubator and cultured for another 3 days.
(1) CTG was added and the plate was read: 20 μL of CellTiter Glo was added to each well of the cell plate, and the cell plate was shaken in the dark for 10 min;
(2) plates were read on Victor Nivo.
The equation (Sample-Min)/(Max-Min)*100% was used to convert the original data into inhibition rate, and the IC50 value could be obtained by curve fitting with four parameters (obtained by “log (inhibitor) vs. response—variable slope” mode in GraphPad Prism).

Consider `COc1cc(F)cc([C@@H](CO)NC(=O)[C@@H](C)N2Cc3ccc(-c4nc(NC5CCOCC5)ncc4Cl)cc3S2(=O)=O)c1` [Compound 1], for which the “TGI (tumor growth inhibition rate)” value in assay [1] is listed as 107%. For the same compound, the half-maximal inhibitory concentration (IC50) in the assay on Calu-6 cells is 88.5 nM; in the assay with HCT116 cells it was 103 nM.
For `COc1cc(F)cc([C@@H](CO)NC(=O)[C@@H](C)N2Cc3ccc(-c4nc(NC5CCOCC5)ncc4Br)cc3S2(=O)=O)c1` [Compound 3], the “TGI (tumor growth inhibition rate)” value in assay [1] is 110%. For the same compound, the IC50 in the assay on Calu-6 cells (Homo sapiens, Calu-6, 72 h) is 300 nM; in the assay with HCT116 cells it was 138 nM.
Turning to `[2H]C1([2H])CC(Nc2ncc(Cl)c(-c3ccc4c(c3)S(=O)(=O)N([C@H](C)C(=O)N[C@H](CO)c3cc(F)cc(OC)c3)C4)n2)CC([2H])([2H])O1` [Compound 9], in assay [1], the “TGI (tumor growth inhibition rate)” value amounted to 108%. Also, the IC50 in the assay on Calu-6 cells (Homo sapiens, Calu-6, 72 h) amounted to 222 nM; in the assay with HCT116 cells, 105 nM.
On to `COc1cc(F)cc([C@@H](CO)NC(=O)[C@@H](C)N2Cc3ccc(-c4nc(N[C@H]5CCOC[C@H]5F)ncc4Cl)cc3S2(=O)=O)c1` [Compound 11], for which, in assay [1], the “TGI (tumor growth inhibition rate)” value stood at 109%. The same compound gave an IC50 in the assay with HCT116 cells of 123 nM.

For orientation: IC50 means the concentration at which inhibition is half-maximal. High values mean a need for much substance, low ones inhibition by little substance.
